{
  "source": "patent US6100073A",
  "about": "“Acid-stable and thermo-stable enzymes derived from sulfolobus species” (Genencor International, Inc., priority 1994, dated 2000)",
  "molecular_target": "enzyme having α-1,4 hydrolytic activity derived from Sulfolobus acidocaldarius DSM 639 (purified, about 95 kDa; EC 3.2.1.1 / amylopullulanase) (Sulfolobus acidocaldarius, UniProt Q4J9M2)",
  "sequence (Q4J9M2 1-884)": "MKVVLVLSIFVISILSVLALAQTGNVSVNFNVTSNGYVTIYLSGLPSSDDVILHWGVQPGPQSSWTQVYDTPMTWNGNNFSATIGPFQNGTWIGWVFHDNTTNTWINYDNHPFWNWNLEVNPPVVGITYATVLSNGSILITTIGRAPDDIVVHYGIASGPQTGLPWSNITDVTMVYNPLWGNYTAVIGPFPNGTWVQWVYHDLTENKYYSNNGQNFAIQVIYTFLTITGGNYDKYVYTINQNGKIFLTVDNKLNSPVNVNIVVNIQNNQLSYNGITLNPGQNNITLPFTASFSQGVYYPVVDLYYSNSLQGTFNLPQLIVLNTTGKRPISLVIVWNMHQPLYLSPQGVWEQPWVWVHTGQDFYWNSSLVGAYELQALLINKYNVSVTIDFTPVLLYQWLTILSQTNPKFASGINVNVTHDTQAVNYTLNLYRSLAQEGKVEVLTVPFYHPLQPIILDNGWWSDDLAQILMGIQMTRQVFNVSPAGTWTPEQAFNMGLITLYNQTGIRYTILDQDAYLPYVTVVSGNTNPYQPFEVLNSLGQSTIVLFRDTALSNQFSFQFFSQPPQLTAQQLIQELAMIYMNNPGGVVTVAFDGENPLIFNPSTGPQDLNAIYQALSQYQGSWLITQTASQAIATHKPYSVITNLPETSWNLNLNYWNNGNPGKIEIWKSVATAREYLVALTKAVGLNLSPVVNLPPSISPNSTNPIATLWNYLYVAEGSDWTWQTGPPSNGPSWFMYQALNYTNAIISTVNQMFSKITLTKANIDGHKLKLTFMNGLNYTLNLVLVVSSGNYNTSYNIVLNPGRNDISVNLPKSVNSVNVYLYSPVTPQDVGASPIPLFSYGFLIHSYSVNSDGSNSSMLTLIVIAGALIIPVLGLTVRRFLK",
  "test": "biochemical",
  "method": "In a hermetically sealed tube, 25 μl of solution C was mixed with 25 μl of water and then added to 250 μl of a solution containing 0.1% (w/v) Lintner'starch (Baker), citrate/phosphate buffer (100 mM/200 mM) at various pH values (as described in detail below). The mixture was then incubated for 15 minutes at various temperatures (see below). Incubation was terminated by transferring the tube to an ice/water bath (0° C.).\nThe absorbance was measured at 620 nm (Pharmacia LKB Ultraspec Plus).\nA blank assay was performed by replacing the 50 μl enzyme solution C with water.\nThe relative activity (relative units) was calculated from the standard curve by calculation of the value [(ODb -ODs)/ODb ]×100, and then linearly extrapolating the corresponding volume (μl) from the two closest points of the standard curve.\nThe relative (α-1,4 hydrolytic) activity (%) is defined as the extrapolated volume value (μl), deduced from the standard curve.\nRespective samples of Solution C were obtained and prepared as described above in Example 4 to perform the standard assay.\nThe influence of various metal cations and of EDTA on the α-1,4 hydrolytic activity of the enzyme derived from Sulfolobus acidocaldarius DSM 639 was determined by running the standard assay described above in Example 4 on each of the tubes (samples) in the presence of the additional various metal cations at a final concentration of 2, 5, and 10 mM.",
  "key": {"[1]": {"details": "read-out: Relative activity (%)"}},
  "data": [
    {"smiles": "O=C(O)CN(CCN(CC(=O)O)CC(=O)O)CC(=O)O", "note": "[EDTA]", "values": [
      {"measurement": "α-1,4 hydrolytic activity in the absence of calcium (with EDTA)", "setting": "EDTA 2-10 mM, summary of Table 6", "value": "fully active"},
      {"measurement": "activity at 2000 µM", "setting": "[1]", "value": 97, "unit": "%"},
      {"measurement": "activity at 5000 µM", "setting": "[1]", "value": 101, "unit": "%"},
      {"measurement": "activity at 10000 µM", "setting": "[1]", "value": 98, "unit": "%"}
    ]}
  ]
}
